According to ChEMBL document CHEMBL1909046, “DrugMatrix in vitro pharmacology data”:

Legend:
[1] = DRUGMATRIX: Phosphodiesterase PDE3 enzyme inhibition (substrate: [3H]cAMP + cAMP); type: tissue-based, Homo sapiens; conditions: platelet; Not Active = under 50% inhibition at 10 µM
[2] = biological target: T1, C-X-C chemokine receptor type 1 (Homo sapiens, UniProt P25024); further: in other assays of this panel Not Active means under 50% inhibition at 10 µM
T1 sequence (P25024 whole entry): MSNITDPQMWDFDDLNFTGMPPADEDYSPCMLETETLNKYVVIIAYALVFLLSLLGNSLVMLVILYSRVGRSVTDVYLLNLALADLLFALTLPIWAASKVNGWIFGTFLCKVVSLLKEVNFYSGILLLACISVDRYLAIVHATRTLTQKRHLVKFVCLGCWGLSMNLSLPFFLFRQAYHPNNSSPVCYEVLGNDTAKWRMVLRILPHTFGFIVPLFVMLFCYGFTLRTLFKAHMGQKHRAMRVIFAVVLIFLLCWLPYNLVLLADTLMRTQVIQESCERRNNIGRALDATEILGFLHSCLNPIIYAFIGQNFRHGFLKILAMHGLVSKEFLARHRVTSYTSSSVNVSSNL

[3] = DRUGMATRIX: Sodium/nucleoside co-transporter radioligand binding (ligand: nitrobenzylthioinosine); type: cell membranes, Cavia porcellus, Dunkin-Hartley, Cerebral cortex, Membrane; conditions: Not Active = under 50% inhibition at 10 µM
[4] = biological target: T2, Alpha-1B adrenergic receptor (Rattus norvegicus, UniProt P15823); experiment: DRUGMATRIX: Alpha-1B adrenergic receptor radioligand binding (ligand: prazosin); type: cell membranes, Wistar, Liver, Membrane; conditions: Not Active = under 50% inhibition at 10 µM
T2 sequence (P15823 whole entry): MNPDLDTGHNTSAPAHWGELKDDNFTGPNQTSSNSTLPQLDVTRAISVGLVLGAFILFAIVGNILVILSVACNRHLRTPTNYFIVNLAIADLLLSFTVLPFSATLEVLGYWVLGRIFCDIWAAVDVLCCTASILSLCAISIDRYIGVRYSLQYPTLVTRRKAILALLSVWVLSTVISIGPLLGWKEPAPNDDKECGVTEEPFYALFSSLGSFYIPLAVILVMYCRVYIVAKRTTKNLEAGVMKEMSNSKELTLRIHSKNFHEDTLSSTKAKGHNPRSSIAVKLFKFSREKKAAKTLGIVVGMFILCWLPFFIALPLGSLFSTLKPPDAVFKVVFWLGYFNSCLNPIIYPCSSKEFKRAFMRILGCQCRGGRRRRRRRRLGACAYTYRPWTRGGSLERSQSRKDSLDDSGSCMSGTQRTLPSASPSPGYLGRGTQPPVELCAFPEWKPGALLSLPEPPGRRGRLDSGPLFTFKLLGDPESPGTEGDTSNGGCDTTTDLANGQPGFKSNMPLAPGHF

[5] = biological target: Vascular endothelial growth factor receptor 1 (Homo sapiens, UniProt P17948); type: cell-based; conditions: huvec; further: in other assays of this panel Not Active means under 50% inhibition at 10 µM
[6] = biological target: T3, Amine oxidase [flavin-containing] A (Homo sapiens, UniProt P21397); experiment: DRUGMATRIX: Monoamine Oxidase MAO-A enzyme inhibition (substrate: Kynuramine); set-up: species or system BTI-TN-5B1-4; conditions: bti-tn-5b1-4; Not Active = under 50% inhibition at 10 µM
T3 sequence (P21397 whole entry): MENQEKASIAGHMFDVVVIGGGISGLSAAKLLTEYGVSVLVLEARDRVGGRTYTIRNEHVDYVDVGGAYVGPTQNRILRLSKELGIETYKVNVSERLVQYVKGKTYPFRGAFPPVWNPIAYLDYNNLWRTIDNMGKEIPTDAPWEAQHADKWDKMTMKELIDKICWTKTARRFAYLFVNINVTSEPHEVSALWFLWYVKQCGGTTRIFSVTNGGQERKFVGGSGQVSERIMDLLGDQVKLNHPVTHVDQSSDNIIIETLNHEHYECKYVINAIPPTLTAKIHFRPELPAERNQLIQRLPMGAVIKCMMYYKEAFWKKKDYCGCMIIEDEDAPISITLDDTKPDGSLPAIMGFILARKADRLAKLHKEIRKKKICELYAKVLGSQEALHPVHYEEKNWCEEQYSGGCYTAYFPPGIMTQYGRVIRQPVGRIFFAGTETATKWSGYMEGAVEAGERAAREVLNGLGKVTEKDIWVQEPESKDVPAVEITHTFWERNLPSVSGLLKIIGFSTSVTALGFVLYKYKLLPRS

[7] = biological target: 5-hydroxytryptamine receptor 2B (Homo sapiens, UniProt P41595); type: cell membranes, CHO-K1, Membrane; further: in other assays of this panel Not Active means under 50% inhibition at 10 µM
[8] = biological target: cGMP-specific 3',5'-cyclic phosphodiesterase (Homo sapiens, UniProt O76074); experiment: DRUGMATRIX: Phosphodiesterase PDE5 enzyme inhibition (substrate: [3H]cGMP + cGMP); type: tissue-based; conditions: platelet; Not Active = under 50% inhibition at 10 µM

Sequence of Vascular endothelial growth factor receptor 1 (P17948 whole entry): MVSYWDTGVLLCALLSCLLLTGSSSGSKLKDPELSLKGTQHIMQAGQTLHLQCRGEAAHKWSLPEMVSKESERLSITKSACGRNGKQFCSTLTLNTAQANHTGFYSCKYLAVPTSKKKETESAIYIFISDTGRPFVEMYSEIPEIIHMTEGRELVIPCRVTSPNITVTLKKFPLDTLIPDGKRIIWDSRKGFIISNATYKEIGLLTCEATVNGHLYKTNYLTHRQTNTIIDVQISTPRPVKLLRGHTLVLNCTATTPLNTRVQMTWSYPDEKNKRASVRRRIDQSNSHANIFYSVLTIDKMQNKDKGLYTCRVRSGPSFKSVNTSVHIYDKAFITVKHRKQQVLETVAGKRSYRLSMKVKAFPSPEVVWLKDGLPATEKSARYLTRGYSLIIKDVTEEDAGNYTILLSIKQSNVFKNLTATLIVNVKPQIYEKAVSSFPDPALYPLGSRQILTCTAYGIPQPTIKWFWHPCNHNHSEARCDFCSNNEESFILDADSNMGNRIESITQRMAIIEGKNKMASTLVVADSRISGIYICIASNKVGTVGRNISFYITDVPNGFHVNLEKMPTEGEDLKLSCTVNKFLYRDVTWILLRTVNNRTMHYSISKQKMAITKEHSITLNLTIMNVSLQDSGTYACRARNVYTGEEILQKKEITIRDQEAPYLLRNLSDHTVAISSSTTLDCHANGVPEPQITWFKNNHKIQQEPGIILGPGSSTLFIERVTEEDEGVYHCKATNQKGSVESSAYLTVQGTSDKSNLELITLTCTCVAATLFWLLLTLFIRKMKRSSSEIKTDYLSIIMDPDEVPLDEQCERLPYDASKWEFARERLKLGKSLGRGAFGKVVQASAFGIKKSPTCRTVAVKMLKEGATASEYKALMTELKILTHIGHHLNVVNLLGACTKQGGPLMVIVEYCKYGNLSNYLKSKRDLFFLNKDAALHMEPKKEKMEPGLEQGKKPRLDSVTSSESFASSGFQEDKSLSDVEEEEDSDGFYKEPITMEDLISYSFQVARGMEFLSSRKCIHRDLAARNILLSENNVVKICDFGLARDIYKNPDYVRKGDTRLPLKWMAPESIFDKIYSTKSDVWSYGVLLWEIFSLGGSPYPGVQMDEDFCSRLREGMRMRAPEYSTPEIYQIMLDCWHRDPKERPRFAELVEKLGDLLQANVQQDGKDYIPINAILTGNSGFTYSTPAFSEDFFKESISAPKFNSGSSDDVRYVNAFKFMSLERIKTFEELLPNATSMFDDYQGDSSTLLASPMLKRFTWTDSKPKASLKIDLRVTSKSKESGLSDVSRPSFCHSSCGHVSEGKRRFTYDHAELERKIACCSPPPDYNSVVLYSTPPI
Sequence of 5-hydroxytryptamine receptor 2B (P41595 whole entry): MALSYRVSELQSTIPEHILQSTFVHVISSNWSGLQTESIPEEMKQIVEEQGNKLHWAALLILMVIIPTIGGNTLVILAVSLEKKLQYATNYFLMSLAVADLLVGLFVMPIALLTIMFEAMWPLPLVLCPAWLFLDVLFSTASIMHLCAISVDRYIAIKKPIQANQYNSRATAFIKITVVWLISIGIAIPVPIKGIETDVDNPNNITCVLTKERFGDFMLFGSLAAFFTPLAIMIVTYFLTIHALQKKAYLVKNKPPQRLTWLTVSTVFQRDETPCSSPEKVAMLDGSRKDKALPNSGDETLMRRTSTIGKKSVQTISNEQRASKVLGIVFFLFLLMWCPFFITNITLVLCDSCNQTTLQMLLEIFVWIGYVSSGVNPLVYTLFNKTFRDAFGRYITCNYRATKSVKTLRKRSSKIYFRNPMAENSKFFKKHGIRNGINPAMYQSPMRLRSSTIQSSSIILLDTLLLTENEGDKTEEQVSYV

Question: What does the source list for `Nc1c(Br)cc(Br)cc1CN[C@H]1CC[C@H](O)CC1` [AMBROXOL]?
Answer: IC50 [1]: Not Active; Ki [1]: Not Active; IC50 [2]: Not Active; IC50 [3]: Not Active; Ki [3]: Not Active; IC50 [4]: Not Active; IC50 [5]: Not Active; IC50 [6]: Not Active; IC50 ([7]; cho-k1): Not Active; IC50 [8]: Not Active

Question: What does the source list for `Nc1nc2c(ncn2COCCO)c(=O)[nH]1` [ACYCLOVIR]?
Answer: IC50 [1]: Not Active; Ki [1]: Not Active; IC50 [2]: Not Active; IC50 [3]: Not Active; Ki [3]: Not Active; IC50 [4]: Not Active; IC50 [5]: Not Active; IC50 [6]: Not Active; IC50 ([7]; cho-k1): Not Active; IC50 [8]: Not Active

Question: Which IC50 [1] does the source give for `CN(C)CCCN1c2ccccc2Sc2ccccc21` [PROMAZINE] here?
Answer: Not Active

Question: What about the Ki [1] of the same compound?
Answer: Not Active

Question: What about the IC50 [2] of the same compound?
Answer: Not Active

Question: What about the IC50 [3] of the same compound?
Answer: Not Active

Question: What about the Ki [3] of the same compound?
Answer: Not Active

Question: And the IC50 ([4]; read-out: IC50)?
Answer: 8.19 nM

Question: What about the Ki ([4]; read-out: Ki) of the same compound?
Answer: 4.53 nM

Question: What about the IC50 [5] of the same compound?
Answer: Not Active

Question: And the IC50 [6]?
Answer: Not Active

Question: And the IC50 ([7]; read-out: IC50)?
Answer: 347 nM

Question: What about the Ki ([7]; read-out: Ki) of the same compound?
Answer: 221 nM

Question: What about the IC50 [8] of the same compound?
Answer: Not Active

Question: Which IC50 [1] does the source give for `CC1(C)O[C@@H]2C[C@H]3[C@@H]4CCC5=CC(=O)CC[C@]5(C)[C@@]4(F)[C@@H](O)C[C@]3(C)[C@]2(C(=O)CCl)O1` [HALCINONIDE] here?
Answer: Not Active

Question: And the Ki [1]?
Answer: Not Active

Question: What about the IC50 [2] of the same compound?
Answer: Not Active

Question: And the IC50 [3]?
Answer: Not Active

Question: What about the Ki [3] of the same compound?
Answer: Not Active

Question: And the IC50 [4]?
Answer: Not Active

Question: What about the IC50 [5] of the same compound?
Answer: Not Active

Question: What about the IC50 [6] of the same compound?
Answer: Not Active

Question: What about the IC50 ([7]; cho-k1) of the same compound?
Answer: Not Active

Question: What about the IC50 [8] of the same compound?
Answer: Not Active

Question: With `CC1CC(OC(=O)C(O)c2ccccc2)CC(C)(C)C1` (stereo not drawn) [CYCLANDELATE] as the compound, how does the IC50 [1] read?
Answer: Not Active

Question: What about the Ki [1] of the same compound?
Answer: Not Active

Question: What about the IC50 [2] of the same compound?
Answer: Not Active

Question: What about the IC50 [3] of the same compound?
Answer: Not Active

Question: What about the Ki [3] of the same compound?
Answer: Not Active

Question: And the IC50 [4]?
Answer: Not Active

Question: What about the IC50 [5] of the same compound?
Answer: Not Active

Question: What about the IC50 [6] of the same compound?
Answer: Not Active

Question: And the IC50 ([7]; cho-k1)?
Answer: Not Active

Question: And the IC50 [8]?
Answer: Not Active

Question: With LEAD (II) ACETATE as the compound, how does the IC50 [1] read?
Answer: Not Active

Question: And the Ki [1]?
Answer: Not Active

Question: And the IC50 [2]?
Answer: Not Active

Question: What about the Ki [2] of the same compound?
Answer: Not Active

Question: And the IC50 [3]?
Answer: Not Active

Question: And the Ki [3]?
Answer: Not Active

Question: And the IC50 [4]?
Answer: Not Active

Question: What about the Ki [4] of the same compound?
Answer: Not Active

Question: What about the IC50 [5] of the same compound?
Answer: Not Active

Question: What about the Ki [5] of the same compound?
Answer: Not Active

Question: And the IC50 [6]?
Answer: Not Active

Question: And the Ki [6]?
Answer: Not Active

Question: And the IC50 ([7]; cho-k1)?
Answer: Not Active

Question: And the Ki ([7]; cho-k1)?
Answer: Not Active

Question: What about the IC50 [8] of the same compound?
Answer: Not Active

Question: What about the Ki [8] of the same compound?
Answer: Not Active

Question: Which IC50 [1] does the source give for `Sc1ncnc2nc[nH]c12` [MERCAPTOPURINE ANHYDROUS] here?
Answer: Not Active

Question: And the Ki [1]?
Answer: Not Active

Question: What about the IC50 [2] of the same compound?
Answer: Not Active

Question: What about the IC50 [3] of the same compound?
Answer: Not Active

Question: And the Ki [3]?
Answer: Not Active

Question: And the IC50 [4]?
Answer: Not Active

Question: What about the IC50 [5] of the same compound?
Answer: Not Active

Question: And the IC50 [6]?
Answer: Not Active

Question: And the IC50 ([7]; cho-k1)?
Answer: Not Active

Question: What about the IC50 [8] of the same compound?
Answer: Not Active

Question: What does the source list for `O=c1[nH]c(=O)n([C@H]2C[C@H](O)[C@@H](CO)O2)cc1I` [IDOXURIDINE]?
Answer: IC50 [1]: Not Active; Ki [1]: Not Active; IC50 [2]: Not Active; IC50 [3]: Not Active; Ki [3]: Not Active; IC50 [4]: Not Active; IC50 [5]: Not Active; IC50 [6]: Not Active; IC50 ([7]; cho-k1): Not Active; IC50 [8]: Not Active

Question: Which IC50 [1] does the source give for `CC1(C)S[C@@H]2[C@H](NC(=O)Cc3ccccc3)C(=O)N2[C@H]1C(=O)O` [PENICILLIN G] here?
Answer: Not Active

Question: And the Ki [1]?
Answer: Not Active

Question: And the IC50 [2]?
Answer: Not Active

Question: And the IC50 [3]?
Answer: Not Active

Question: What about the Ki [3] of the same compound?
Answer: Not Active

Question: And the IC50 [4]?
Answer: Not Active

Question: And the IC50 [5]?
Answer: Not Active

Question: What about the IC50 [6] of the same compound?
Answer: Not Active

Question: And the IC50 ([7]; cho-k1)?
Answer: Not Active

Question: And the IC50 [8]?
Answer: Not Active

Question: Which IC50 [1] does the source give for `CC1=C2C(=CO[C@H](C)[C@H]2C)C(O)=C(C(=O)O)C1=O` [CITRININ] here?
Answer: Not Active

Question: And the Ki [1]?
Answer: Not Active

Question: And the IC50 [2]?
Answer: Not Active

Question: And the IC50 [3]?
Answer: Not Active

Question: And the Ki [3]?
Answer: Not Active

Question: What about the IC50 [4] of the same compound?
Answer: Not Active

Question: And the IC50 [5]?
Answer: Not Active

Question: What about the IC50 [6] of the same compound?
Answer: Not Active

Question: And the IC50 ([7]; cho-k1)?
Answer: Not Active

Question: What about the IC50 [8] of the same compound?
Answer: Not Active
